Laboratory results reported in patent publication US12109184B2, “Personalized methods of treating cancer” (CANCER RESEARCH TECHNOLOGY LIMITED, priority 2020, dated 2024).
Entries after “also recorded” stand apart in the source; their conditions may differ.

Legend:
[1] = system: HCT116, SW480, MDA-MB-231, and MIAPaCa-2 cells; conditions: exogenous GSH 5 mM
Protocol: HCT116, SW480, MDA-MB-468, MDA-MB-231, AsPC-1, BxPC-3, CFPAC-1, MIAPaCa-2, PANC-1, Panc10.05, SW1990, U-251, LN-18, LN-229, T98G, U-343, A-172 cells were used. Cell lines were authenticated using Short Tandem Repeat (STR) profiling and tested for mycoplasma. Colorectal and breast cancer cell lines were grown in Dulbecco's Modified Eagle Medium (DMEM), pancreatic ductal adenocarcinoma (PDAC) cell lines were grown in Roswell Park Memorial institute (RPMI) 1640. All cell lines were supplemented with penicillin-streptomycin, amphotericin, 2 mM L-glutamine, and 10% fetal bovine serum (FBS). Cells were kept at 37° C. in 5% CO2 in a humidified cell culture incubator. A formulated medium lacking cysteine, cystine, methionine, and serine was used as a base for creating experimental media. The base medium formulation contained 0.2 mM L-histidine, 0.4 mM L-isoleucine, 0.4 mM L-leucine, 0.4 mM L-lysine, 0.2 mM L-phenylalanine, 0.4 mM L-threonine, 0.08 mM L-tryptophan, 0.4 mM L-valine, 0.2 mM L-arginine, 2 mM L-glutamine, 0.2 mM L-tyrosine, 0.4 mM L-alanine, 0.3 mM L-proline, 0.15 mM L-glutamic acid, 0.1 mM L-aspartic acid, 0.2 mM L-asparagine, and 0.4 mM glycine. […]
Cells were seeded at 6×10^4 cells per well into 24-well plates (triplicate wells per condition) in the relevant complete medium and adhered for a full 24-hour period. […] DAPI-stained cell nuclei were detected via microscopy. […]

MDA-MB-231 cells = assay: Steady state metabolite measurements by LC-MS; assay type: cell-based
Protocol: Metabolomics experiments were performed as follows. Cells were seeded into 6-well plates (5×10^5-1.5×10^6 cells/mL, depending on time-course, triplicate wells per condition) in complete medium and adhered overnight. Cells were washed with PBS, and the relevant experimental media were added for the stated times. Duplicate wells were used for cell counting. Cell counts were used to normalize the volume of lysis solvent prior to metabolite extractions (2×10^6 cells/mL). Cells were washed quickly in PBS, then ice-cold lysis solvent (methanol 50%, acetonitrile 30%, water 20%) was added, and cells were scraped on ice. Lysates were transferred to 1.5 mL tubes on ice, vortexed, then spun by centrifugation at 15,000 rpm at 4° C. for 10 minutes. Supernatants were collected and stored at -80° C. for LC-MS analysis. Prepared samples were analyzed on an LC-MS platform consisting of an […] system and an ExactiveTM mass spectrometer. A Sequant® ZIC®-HILIC column (4.6 mm×150 mm, 3.5 μm) was used to separate the metabolites with the mobile phase using A=0.1% (v/v) formic acid in water and B=0.1% (v/v) formic acid in acetonitrile. A gradient program starting at 20% of A and linearly increasing to 80% at 30 min was used followed by washing (92% of A for 5 mins) and re-equilibration (20% of A for 10 min) steps. The total run time of the method was 45 min. The LC stream was desolvated and ionized in the HESI probe. The ExactiveTM mass spectrometer was operated in full scan mode over a mass range of 70-1,200 m/z at a resolution of 50,000 with polarity switching. The LC-MS raw data was converted into mzML files by using ProteoWizard and imported to MZMine 2.10 for peak extraction and sample alignment. An in-house database including all possible ^13C and ^15N isotopic m/z values of the relevant metabolites was used for the assignment of LCMS signals. Finally the peak areas were used for comparative quantification.

[2] = system: SW480 and MDA-MB-231 cells; assay: Cell counting, rescue by cysteine precursors during cysteine starvation; assay type: cell-based
Protocol: HCT116, SW480, MDA-MB-468, MDA-MB-231, AsPC-1, BxPC-3, CFPAC-1, MIAPaCa-2, PANC-1, Panc10.05, SW1990, U-251, LN-18, LN-229, T98G, U-343, A-172 cells were used. Cell lines were authenticated using Short Tandem Repeat (STR) profiling and tested for mycoplasma. Colorectal and breast cancer cell lines were grown in Dulbecco's Modified Eagle Medium (DMEM), pancreatic ductal adenocarcinoma (PDAC) cell lines were grown in Roswell Park Memorial institute (RPMI) 1640. All cell lines were supplemented with penicillin-streptomycin, amphotericin, 2 mM L-glutamine, and 10% fetal bovine serum (FBS). Cells were kept at 37° C. in 5% CO2 in a humidified cell culture incubator. A formulated medium lacking cysteine, cystine, methionine, and serine was used as a base for creating experimental media. The base medium formulation contained 0.2 mM L-histidine, 0.4 mM L-isoleucine, 0.4 mM L-leucine, 0.4 mM L-lysine, 0.2 mM L-phenylalanine, 0.4 mM L-threonine, 0.08 mM L-tryptophan, 0.4 mM L-valine, 0.2 mM L-arginine, 2 mM L-glutamine, 0.2 mM L-tyrosine, 0.4 mM L-alanine, 0.3 mM L-proline, 0.15 mM L-glutamic acid, 0.1 mM L-aspartic acid, 0.2 mM L-asparagine, and 0.4 mM glycine. The base medium was supplemented with 10% dialyzed FBS, penicillin-streptomycin, and amphotericin. To ensure an adequate supply of vitamin B6 (a crucial co-factor for de novo cysteine synthesis), base medium was supplemented with additional 20 μM vitamin B6. The control experimental medium was the base medium supplemented with 0.4 mM L-cysteine, 0.2 mM L-methionine, and 0.4 mM L-serine. The cysteine starvation (−Cys) experimental medium was base medium supplemented with 0.2 mM L-methionine and 0.4 mM L-serine.
Cells were seeded at 6×10^4 cells per well into 24-well plates (triplicate wells per condition) in the relevant complete medium and adhered for a full 24-hour period. A ‘time-0’ plate was included to record the starting cell number to calculate relative cell numbers. Cells were washed once with phosphate-buffered saline (PBS) before receiving experimental medium containing or lacking the specified amino acids, metabolites, or drugs. At the stated time-points the medium was removed, cells were fixed in a 4% formalin-PBS solution. Cells were then washed and stored in PBS before staining with 4′,6-diamidino-2-phenylindole (DAPI)-Triton™ X100-PBS solution for 1 hour, followed by storage in PBS at 4° C. until further analysis. DAPI-stained cell nuclei were detected via microscopy.
Homocysteine, cystathionine, glutathione, putrescine, spermine, spermidine, GPX4 inhibitor ML210, SMOX inhibitor MDL 72527, PAOX inhibitor diminazene aceturate, ferrostatin-1 and erastin were used. AMD1 inhibitor sardomozide/SAM486A, GPX4 inhibitor RSL3, and CSE inhibitor beta-cyano-L-alanine were used. […]

[3] = system: breast, colorectal and pancreatic cancer cell lines; assay: Cell counting in complete or cysteine-free medium, cell lines not given; assay type: cell-based; conditions: supplementation during cysteine starvation
Protocol: The base medium formulation contained 0.2 mM L-histidine, 0.4 mM L-isoleucine, 0.4 mM L-leucine, 0.4 mM L-lysine, 0.2 mM L-phenylalanine, 0.4 mM L-threonine, 0.08 mM L-tryptophan, 0.4 mM L-valine, 0.2 mM L-arginine, 2 mM L-glutamine, 0.2 mM L-tyrosine, 0.4 mM L-alanine, 0.3 mM L-proline, 0.15 mM L-glutamic acid, 0.1 mM L-aspartic acid, 0.2 mM L-asparagine, and 0.4 mM glycine.
DAPI-stained cell nuclei were detected via microscopy.
AMD1 inhibitor sardomozide/SAM486A, GPX4 inhibitor RSL3, and CSE inhibitor beta-cyano-L-alanine were used.
For experiments using spermine oxidase (SMOX) and polyamine oxidase (PAOX) inhibitors or MTOB, cells were pre-treated with stated concentrations for 16 hours in complete medium. After pre-treatment, cells were washed in PBS, and treatment was continued in complete or cysteine-free medium for stated times. After treatment was finished, cells were fixed and stained as described above. For experiments using MTA, polyamines, GPX4 and CSE inhibitors, treatment started at the same time as cysteine starvation. For experiments involving hypoxic conditions, cells were seeded in normoxic conditions and allowed to adhere for 24 hours before control and cysteine starvation medium was added and cells were immediately transferred either to a humidified cell culture incubator set to 37° C. in 20% O2 (normoxia), or a hypoxia chamber set to 37° C. in 1% O2 (hypoxia) for the stated times. Cells were fixed immediately and stained as described above.

[4] = system: HCT116, SW480, MDA-MB-231 and MDA-MB-468 cells; assay: Western blot of transsulfuration pathway enzyme expression; assay type: cell-based; conditions: medium lacking cysteine with 0.8 mM homocysteine, 24 hr
From the text: Protein was extracted from whole cells by lysis in RIPA buffer supplemented with a protease and […] cocktail. Lysates were cleared using centrifugation, resolved on 4-12% bis-tris pre-cast gels, and transferred to nitrocellulose membranes. Primary antibodies used were MTAP, AMD1, ODC1, GPX4, AHCY, CBS, CSE, and actin as a loading control on the same blots. Secondary antibodies used were IRDye800CW anti-mouse, IRDye680RD anti-mouse, IRDye800CW anti-rabbit, and IRDye680RD anti-rabbit. Protein bands were detected and quantified using an infrared scanner and imaging software.

[5] = medium lacking cysteine with 5 mM glutathione
[6] = medium lacking cysteine, supplement 0.2 mM

SMILES	cell death and proliferation during cysteine starvation [1]	intracellular GSH levels (MDA-MB-231 cells; [5])	intracellular cysteine and γ-glutamylcysteine levels (MDA-MB-231 cells; [5])	rescue of survival/proliferation during cysteine starvation ([2]; supplement at 0.2 mM)	restoration of proliferation during cysteine starvation ([2]; supplement at 0.8 mM)	rescue from cysteine starvation-induced cell death (summary in discussion) [3]	intracellular cysteine levels (MDA-MB-231 cells; [6])	intracellular homocysteine and cystathionine levels (MDA-MB-231 cells; [6])	intracellular γ-glutamylcysteine and GSH levels (MDA-MB-231 cells; [6])	intracellular cysteine levels (MDA-MB-231 cells; medium lacking cysteine, supplement 0.8 mM, 8 h)	transsulfuration pathway enzyme expression beyond starvation alone [4]
N[C@@H](CCC(=O)N[C@@H](CS)C(=O)NCC(=O)O)C(=O)O [GSH, glutathione]	prevented cell death and restored proliferation	fully restored	partial rescue	–	–	–	–	–	–	–	–
N[C@@H](CCS)C(=O)O [homocysteine]	–	–	–	substantial rescue	further able to restore proliferation; also recorded: restored proliferation and increased cell survival	rescued from starvation-induced cell death; also recorded: able to rescue cells from cysteine starvation	moderate increases	significantly increased	more marked increases	significant increase	little impact
